Measured values from patent publication US9795597B2, “Cyclopropylamines as LSD1 inhibitors” (GlaxoSmithKline Intellectual Property (No.2) Limited, priority 2011, dated 2017).
Where a name gives a salt, the structure may show the parent alone.

Columns and labels:
[1] = molecular target: T1, LSD1 (Homo sapiens, UniProt O60341); test: Biochemical assay for LSD-1 activity (luminescence, H3K4 dimethylated peptide substrate); details: average of two or more tests; 30 min preincubation of enzyme and compound; read-out: LSD1 PIC50 MEAN (converted)
T1 construct: made in house
Protocol: Biochemical Assay for LSD-1 Activity
The LSD-1 luminescence assay is performed in a buffer containing 25 mM Tris, pH 7.5, 50 mM potassium chloride, 0.02% heat-denatured BSA, 2 mM CHAPS and milliQ ultrapure water. […] The enzyme and test compound are allowed to incubate together for 30 minutes at room temperature. Two microliters of the substrate mix are then added to each well of the plate to initiate the reaction. The plates are covered, protected from light and allowed to incubate for two hours at room temperature. Then, 4 uL of HyPerBlu peroxide detection luminescence reagent (Lumigen/Beckman Coulter, cat# HPB-00005) is added to each well to quench the demethylase reaction and generate the peroxide-dependent luminescence signal. The plates are then incubated for 15-30 minutes in the dark at room temperature prior to being read for Luminescence using a Perkin Elmer Viewlux plate reader. Percent inhibition is calculated based on no compound and no enzyme controls, and inhibition curves are then plotted to determine PIC50 values.

[2] = molecular target: T2, MAO-B (Homo sapiens, UniProt P27338); test: Biochemical assay for MAO-B activity (FLINT, benzylamine/amplex red); details: average of two or more tests; 30 min preincubation of enzyme and compound; read-out: MAOB PIC50 MEAN (converted)
T2 construct: purchased Gentest-BD Biosciences 456284
T2 sequence (P27338 1-520): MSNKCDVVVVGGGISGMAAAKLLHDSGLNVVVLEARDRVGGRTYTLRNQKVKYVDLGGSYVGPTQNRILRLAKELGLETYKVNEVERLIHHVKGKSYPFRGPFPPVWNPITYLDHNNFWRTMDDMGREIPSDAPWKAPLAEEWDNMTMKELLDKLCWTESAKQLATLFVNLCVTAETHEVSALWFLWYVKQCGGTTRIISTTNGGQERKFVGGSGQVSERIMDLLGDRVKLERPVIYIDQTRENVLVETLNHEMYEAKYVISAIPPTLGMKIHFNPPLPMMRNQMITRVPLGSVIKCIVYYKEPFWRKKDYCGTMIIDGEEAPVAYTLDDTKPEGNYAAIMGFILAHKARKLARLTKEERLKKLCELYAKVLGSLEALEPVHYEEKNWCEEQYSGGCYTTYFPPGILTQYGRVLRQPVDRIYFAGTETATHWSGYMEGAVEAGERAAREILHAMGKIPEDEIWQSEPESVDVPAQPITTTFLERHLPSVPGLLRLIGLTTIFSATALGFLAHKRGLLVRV
Protocol: Biochemical Assay for MAO-B Activity
The MAO-B FLINT assay is performed in a buffer containing 50 mM potassium phospate, pH 7.4, in milliQ ultrapure water. […] The enzyme and test compound are allowed to incubate together for 30 minutes at room temperature. Five microliters of the substrate mix are then added to each well of the plate to initiate the reaction. The plates are covered, protected from light and allowed to incubate for one hour at room temperature. […] Percent inhibition is calculated based on no compound and no enzyme controls, and inhibition curves are then plotted to determine PIC50 values.

SMILES | IC50 [1] | IC50 [2]
CC(C)(C)OC(=O)N1CCC(CN[C@H]2C[C@@H]2c2ccccc2)CC1 [Example 3, 1,1-Dimethylethyl 4-({[(1S,2R)-2-phenylcyclopropyl]amino}methyl)-1-piperidinecarboxylate] | 0.631 µM | 7.94 µM
O=C(O)c1ccc(CN2CC[C@H](CN[C@@H]3C[C@H]3c3ccccc3)C2)cc1 [Example 28a, 4-{[(3R)-3-({[(1R,2S)-2-Phenylcyclopropyl]amino}methyl)-1-pyrrolidinyl]methyl}benzoic acid] | 0.158 µM | 31.6 µM
O=C(O)c1ccc(CN2CC[C@@H](CN[C@@H]3C[C@H]3c3ccccc3)C2)cc1 [Example 28b, 4-{[(3S)-3-({[(1R,2S)-2-Phenylcyclopropyl]amino}methyl)-1-pyrrolidinyl]methyl}benzoic acid] | 0.0794 µM | 25.1 µM
O=C(O)c1ccc(CN2CCC(CN[C@@H]3C[C@H]3c3ccccc3)CC2)cc1 [Example 29, 4-((4-((((1R,2S)-2-phenylcyclopropyl)amino)methyl)piperidin-1-yl)methyl)benzoic acid] | 0.158 µM | 25.1 µM
O=C(O)c1ccc(CCCN2CCC(CN[C@@H]3C[C@H]3c3ccccc3)CC2)cc1 [Example 30, 4-{3-[4-({[(1R,2S)-2-Phenylcyclopropyl]amino}methyl)-1-piperidinyl]propyl}benzoic acid 2 HCl] | 0.0126 µM | 31.6 µM
O=C(O)CCN1CCC(CN[C@@H]2C[C@H]2c2ccccc2)CC1 [Example 71, 3-(4-((((1R,2S)-2-Phenylcyclopropyl)amino)methyl)piperidin-1-yl)propanoic acid] | 0.1 µM | 7.94 µM
O=C(O)c1ccc(CCN2CCC(CN[C@@H]3C[C@H]3c3ccccc3)CC2)cc1 [Example 123, 4-(2-(4-((((1R,2S)-2-phenylcyclopropyl)amino)methyl)piperidin-1-yl)ethyl)benzoic acid] | 0.0316 µM | 20 µM
O=C(O)CCN1CC[C@H](CN[C@@H]2C[C@H]2c2ccccc2)C1 [Example 150, 3-((R)-3-((((1R,2S)-2-Phenylcyclopropyl)amino)methyl)pyrrolidin-1-yl)propanoic acid] | 0.0251 µM | 79.4 µM
